# Results published in patent publication US6352970B1, “Treatment of skeletal disorders” (Pfizer Inc., priority 1998, dated 2002).
# Tested on: ob/ob mouse
# Experiment: Leptin administration for four weeks in ob/ob mouse, bone measured by peripheral quantitative computerized tomography
# Type: in vivo
# Text: Administration of leptin for four weeks increased femur length by 6% and increased cortical bone volumetric content by 18%, as determined by peripheral quantitative computerized tomography.
# [1] = peripheral quantitative computerized tomography
substance,measurement,setting,value
"leptin: a product of the obese gene, a 16 kDa protein produced by mature adipocytes and secreted in plasma",increase in femur length,,6%
same,bone volumetric density,[1],unchanged
same,increase in cortical bone volumetric content,[1],18%
